According to patent publication US6737383B1, “Herbicidal oxadiazolidines” (priority 1999, dated 2004):

Experiments:
[1] = test system: pigweed; experiment: Test B pre/postemergence pigweed; assay type: in vivo, Amaranthus retroflexus; conditions: for Plant response rating, Redroot pigweed: scale of 0 to 10 where 0 is no effect and 10 is complete control
Outline: (§1)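 Test chemicals in a non-phytotoxic solvent mixture with surfactant were sprayed preemergence onto planted seeds and postemergence onto plants 2 to 18 cm tall (1- to 4-leaf stage). After twelve to sixteen days in a greenhouse, injury was visually rated against untreated controls from 0 (no effect) to 10 (complete control).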

[2] = test system: morningglory; experiment: Test B pre/postemergence morningglory; assay type: in vivo, Ipomoea hederacea; conditions: for Plant response rating, Morningglory: scale of 0 to 10 where 0 is no effect and 10 is complete control
Outline: as §1

[3] = test system: velvetleaf; experiment: Test B pre/postemergence velvetleaf; assay type: in vivo, Abutilon theophrasti; conditions: for Plant response rating, Velvetleaf: scale of 0 to 10 where 0 is no effect and 10 is complete control
Outline: as §1

[4] = test system: blackgrass; experiment: Test B pre/postemergence blackgrass; assay type: in vivo, Alopecurus myosuroides
Outline: as §1

[5] = test system: smallflower flatsedge; experiment: Test B flood test smallflower flatsedge; assay type: in vivo, Cyperus difformis
Outline: (§2)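 Each value is a visual injury score relative to controls, with 10 meaning complete control and 0 no effect. Evaluation took place twelve to sixteen days after the 2-leaf-stage plants were treated and kept in the greenhouse.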

[6] = test system: wild oat; experiment: Test B pre/postemergence wild oat; assay type: in vivo, Avena fatua; conditions: for Plant response rating, Wild oats: scale of 0 to 10 where 0 is no effect and 10 is complete control
Outline: as §1

[7] = test system: bedstraw; experiment: Test B pre/postemergence bedstraw; assay type: in vivo, Galium aparine
Outline: as §1

[8] = test system: corn; experiment: Test B pre/postemergence corn; assay type: in vivo, Zea mays
Outline: as §1

[9] = test system: soybean; experiment: Test B pre/postemergence soybean; assay type: in vivo, Glycine max; conditions: for Plant response rating, Soybean: scale of 0 to 10 where 0 is no effect and 10 is complete control
Outline: as §1

[10] = test system: purple nutsedge; experiment: Test B pre/postemergence purple nutsedge; assay type: in vivo, Cyperus rotundus; conditions: for Plant response rating, Nutsedge: scale of 0 to 10 where 0 is no effect and 10 is complete control
Outline: as §1

[11] = test system: rice; experiment: Test B flood test rice; assay type: in vivo, Oryza sativa
Outline: as §2

[12] = test system: bamyardgrass; experiment: Test B flood test barnyardgrass; assay type: in vivo, Echinochloa crus-galli
Outline: as §2

[13] = test system: cocklebur; experiment: Test B pre/postemergence cocklebur; assay type: in vivo, Xanthium strumarium
Outline: as §1

[14] = test system: sugar beet; experiment: Test B pre/postemergence sugar beet; assay type: in vivo, Beta vulgaris; conditions: for Plant response rating, Sugarbeets: scale of 0 to 10 where 0 is no effect and 10 is complete control
Outline: as §1

[15] = test system: surinam grass; experiment: Test B pre/postemergence surinam grass; assay type: in vivo, Brachiaria decumbens
Outline: as §1

[16] = test system: rape; experiment: Test B pre/postemergence rape; assay type: in vivo, Brassica napus; conditions: for Plant response rating, Rape: scale of 0 to 10 where 0 is no effect and 10 is complete control
Outline: as §1

[17] = Postemergence, Rate 250 g/ha, scale 0 to 10
[18] = Preemergence, Rate 250 g/ha, scale 0 to 10, 0 is no effect, 10 is complete control
[19] = Preemergence, Rate 500 g/ha, scale 0 to 10, 0 is no effect, 10 is complete control
[20] = Rate 62 g/ha, Postemergence, scale 0 to 10 (0 no effect, 10 complete control)
[21] = Rate 125 g/ha, Postemergence, scale 0 to 10, 0 is no effect, 10 is complete control
[22] = Postemergence, Rate 500 g/ha, scale of 0 to 10 where 0 is no effect and 10 is complete control
[23] = Preemergence, Rate 62 g/ha, scale of 0 to 10 where 0 is no effect and 10 is complete control
[24] = Preemergence, Rate 125 g/ha, scale of 0 to 10 where 0 is no effect and 10 is complete control
[25] = Rate 62 g/ha, flood test species, Pre-emergence, visual evaluation after twelve to sixteen days
[26] = Rate 125 g/ha, under heading Pre-emergence, flood test species, visual evaluation after twelve to sixteen days
[27] = Rate 250 g/ha, Pre-emergence (flood test species), scale 0 to 10, 0 is no effect, 10 is complete control
[28] = Rate 500 g/ha, Pre-emergence, flood test species, scale 0 to 10 (0 no effect, 10 complete control)

## CC(C)N(C(=O)n1oc(=O)n(CCCl)c1=O)c1ccc(Cl)cc1 [Compound 474]
[1]; [17]
  Redroot pigweed plant response rating: 2
[1]; Preemergence, Rate 62 g/ha
  Plant response rating, Redroot pigweed: 1
[1]; Preemergence, Rate 125 g/ha
  Plant response rating, Redroot pigweed: 3
[1]; [18]
  Redroot pigweed plant response rating: 5
[1]; [19]
  Redroot pigweed plant response rating: 7
[1]; [20]
  Redroot pigweed plant response rating: 0
[1]; [21]
  Redroot pigweed plant response rating: 1
[2]; [17]
  Morningglory plant response rating: 1
[2]; Preemergence, Rate 62 g/ha
  Plant response rating, Morningglory: 0
[2]; Preemergence, Rate 125 g/ha
  Plant response rating, Morningglory: 0
[2]; [18]
  Morningglory plant response rating: 0
[2]; [19]
  Morningglory plant response rating: 0
[2]; [20]
  Morningglory plant response rating: 1
[2]; [21]
  Morningglory plant response rating: 1
[3]; [17]
  Velvetleaf plant response rating: 0
[3]; Preemergence, Rate 62 g/ha
  Plant response rating, Velvetleaf: 0
[3]; Preemergence, Rate 125 g/ha
  Plant response rating, Velvetleaf: 0
[3]; [18]
  Velvetleaf plant response rating: 0
[3]; [19]
  Velvetleaf plant response rating: 0
[3]; [20]
  Velvetleaf plant response rating: 0
[3]; [21]
  Velvetleaf plant response rating: 0
[4]; [17]
  Blackgrass plant response rating: 8
[4]; [22]
  Blackgrass plant response rating: 8
[4]; [23]
  Plant response rating, Blackgrass: 3
[4]; [24]
  Plant response rating, Blackgrass: 3
[4]; [18]
  Blackgrass plant response rating: 4
[4]; [19]
  Blackgrass plant response rating: 9
[4]; [20]
  Blackgrass plant response rating: 7
[5]; [25]
  Plant response rating, S. Flatsedge (0 to 10 scale, 0 is no effect, 10 is complete control): 0
[5]; [26]
  S. Flatsedge plant response rating (0 to 10 scale, 0 is no effect, 10 is complete control): 0
[5]; [27]
  S. Flatsedge plant response rating: 0
[5]; [28]
  S. Flatsedge plant response rating: 0
[6]; [17]
  Wild oats plant response rating: 0
[6]; Preemergence, Rate 62 g/ha
  Plant response rating, Wild oats: 0
[6]; Preemergence, Rate 125 g/ha
  Plant response rating, Wild oats: 3
[6]; [18]
  Wild oats plant response rating: 4
[6]; [19]
  Wild oats plant response rating: 8
[6]; [20]
  Wild oats plant response rating: 0
[6]; [21]
  Wild oats plant response rating: 0
[7]; [17]
  Bedstraw plant response rating: 8
[7]; [22]
  Bedstraw plant response rating: 8
[7]; [23]
  Plant response rating, Bedstraw: 0
[7]; [19]
  Bedstraw plant response rating: 0
[7]; [20]
  Bedstraw plant response rating: 6
[7]; [21]
  Bedstraw plant response rating: 6
[8]; [17]
  Corn plant response rating: 0
[8]; [22]
  Corn plant response rating: 0
[8]; [23]
  Plant response rating, Corn: 0
[8]; [24]
  Plant response rating, Corn: 0
[8]; [18]
  Corn plant response rating: 0
[8]; [19]
  Corn plant response rating: 4
[8]; [20]
  Corn plant response rating: 0
[8]; [21]
  Corn plant response rating: 0
[9]; [17]
  Soybean plant response rating: 4
[9]; Preemergence, Rate 62 g/ha
  Plant response rating, Soybean: 0
[9]; Preemergence, Rate 125 g/ha
  Plant response rating, Soybean: 0
[9]; [18]
  Soybean plant response rating: 0
[9]; [19]
  Soybean plant response rating: 0
[9]; [20]
  Soybean plant response rating: 3
[9]; [21]
  Soybean plant response rating: 4
[10]; [17]
  Nutsedge plant response rating: 0
[10]; Preemergence, Rate 62 g/ha
  Plant response rating, Nutsedge: 0
[10]; Preemergence, Rate 125 g/ha
  Plant response rating, Nutsedge: 0
[10]; [18]
  Nutsedge plant response rating: 0
[10]; [19]
  Nutsedge plant response rating: 0
[10]; [20]
  Nutsedge plant response rating: 0
[10]; [21]
  Nutsedge plant response rating: 0
[11]; [25]
  Plant response rating, Rice (0 to 10 scale, 0 is no effect, 10 is complete control): 0
[11]; [26]
  Rice plant response rating (0 to 10 scale, 0 is no effect, 10 is complete control): 0
[11]; [27]
  Rice plant response rating: 0
[11]; [28]
  Rice plant response rating: 0
[12]; [25]
  Plant response rating, Barnyardgrass (0 to 10 scale, 0 is no effect, 10 is complete control): 0
[12]; [26]
  Barnyardgrass plant response rating (0 to 10 scale, 0 is no effect, 10 is complete control): 0
[12]; [27]
  Barnyardgrass plant response rating: 0
[12]; [28]
  Barnyardgrass plant response rating: 0
[13]; [17]
  Cocklebur plant response rating: 0
[13]; [22]
  Cocklebur plant response rating: 4
[13]; [23]
  Plant response rating, Cocklebur: 0
[13]; [24]
  Plant response rating, Cocklebur: 0
[13]; [18]
  Cocklebur plant response rating: 0
[13]; [19]
  Cocklebur plant response rating: 0
[13]; [20]
  Cocklebur plant response rating: 0
[13]; [21]
  Cocklebur plant response rating: 0
[14]; [17]
  Sugarbeets plant response rating: 0
[14]; Preemergence, Rate 62 g/ha
  Plant response rating, Sugarbeets: 0
[14]; Preemergence, Rate 125 g/ha
  Plant response rating, Sugarbeets: 0
[14]; [18]
  Sugarbeets plant response rating: 0
[14]; [19]
  Sugarbeets plant response rating: 3
[14]; [20]
  Sugarbeets plant response rating: 0
[14]; [21]
  Sugarbeets plant response rating: 0
[15]; Postemergence, Rate 250 g/ha, scale 0 to 10, 0 no effect, 10 complete control
  B. signalgrass plant response rating: 1
[15]; [22]
  B. signalgrass plant response rating: 4
[15]; [23]
  Plant response rating, B. signalgrass: 0
[15]; [24]
  Plant response rating, B. signalgrass: 2
[15]; [18]
  B. signalgrass plant response rating: 7
[15]; [19]
  B. signalgrass plant response rating: 7
[15]; [20]
  B. signalgrass plant response rating: 0
[15]; [21]
  B. signalgrass plant response rating: 1
[16]; [17]
  Rape plant response rating: 0
[16]; Preemergence, Rate 62 g/ha
  Plant response rating, Rape: 0
[16]; Preemergence, Rate 125 g/ha
  Plant response rating, Rape: 0
[16]; [18]
  Rape plant response rating: 2
[16]; [19]
  Rape plant response rating: 4
[16]; [20]
  Rape plant response rating: 0
[16]; [21]
  Rape plant response rating: 0
